{
  "source": "ChEMBL document CHEMBL1140682",
  "about": "“A novel series of potent cytotoxic agents targeting G2/M phase of the cell cycle and demonstrating cell killing by apoptosis in human breast cancer cells” (Bioorg Med Chem Lett, 2007)",
  "key": {"MDA-MB-468 [1]": {"tested_on": "MDA-MB-468", "test": "Inhibition of human ER negative MDA-MB-468 cells by MTT assay", "format": "functional, cell-based"}, "MDA-MB-468 [2]": {"tested_on": "MDA-MB-468", "test": "Induction of apoptosis in MDA-MB-468 cells assessed as apoptotic bodies at 8.0 uM after 24 hrs by electron microscopy", "format": "functional, cell-based", "conditions": "Homo sapiens"}, "MDA-MB-468 [3]": {"tested_on": "MDA-MB-468", "test": "Cell cycle arrest in MDA-MB-468 cells by accumulation at S phase at 8.0 uM after 24 hrs", "format": "functional, Homo sapiens"}, "MDA-MB-468 [4]": {"tested_on": "MDA-MB-468", "test": "Induction of apoptosis in MDA-MB-468 cells assessed as p53 levels at 8.0 uM", "format": "functional, cell-based", "conditions": "Homo sapiens"}, "MDA-MB-468 [5]": {"tested_on": "MDA-MB-468", "test": "Induction of apoptosis in MDA-MB-468 cells assessed as nuclear condensation at 8.0 uM after 24 hrs by electron microscopy", "format": "functional, cell-based", "conditions": "Homo sapiens"}, "MDA-MB-468 [6]": {"tested_on": "MDA-MB-468", "test": "Cell cycle arrest in MDA-MB-468 cells by accumulation at G0/G1 phase at 4.0 uM after 24 hrs", "format": "functional, Homo sapiens"}, "MDA-MB-468 [7]": {"tested_on": "MDA-MB-468", "test": "Cell cycle arrest in MDA-MB-468 cells by accumulation at G2/M phase at 0.5 uM after 24 hrs", "format": "functional, Homo sapiens"}, "MDA-MB-468 [8]": {"tested_on": "MDA-MB-468", "test": "Cell cycle arrest in MDA-MB-468 cells by accumulation at G0/G1 phase at 8.0 uM after 24 hrs", "format": "functional, Homo sapiens"}, "MDA-MB-468 [9]": {"tested_on": "MDA-MB-468", "test": "Induction of apoptosis in MDA-MB-468 cells assessed as blebbing at 8.0 uM after 24 hrs by electron microscopy", "format": "functional, cell-based", "conditions": "Homo sapiens"}, "MDA-MB-468 [10]": {"tested_on": "MDA-MB-468", "test": "Induction of apoptosis in MDA-MB-468 cells assessed as DNA fragmentation after 24 hrs by TUNEL assay", "format": "functional, cell-based", "conditions": "Homo sapiens"}, "MDA-MB-468 [11]": {"tested_on": "MDA-MB-468", "test": "Cell cycle arrest in MDA-MB-468 cells by accumulation at G2/M phase at 4.0 uM after 24 hrs", "format": "functional, Homo sapiens"}, "MDA-MB-468 [12]": {"tested_on": "MDA-MB-468", "test": "Cell cycle arrest in MDA-MB-468 cells by accumulation at G0/G1 phase at 0.5 uM after 24 hrs", "format": "functional, Homo sapiens"}, "MDA-MB-468 [13]": {"tested_on": "MDA-MB-468", "test": "Induction of apoptosis in MDA-MB-468 cells assessed as vacuolization at 8.0 uM after 24 hrs by electron microscopy", "format": "functional, cell-based", "conditions": "Homo sapiens"}, "MDA-MB-468 [14]": {"tested_on": "MDA-MB-468", "test": "Induction of apoptosis in MDA-MB-468 cells assessed as alteration in p53 localization", "format": "functional, cell-based", "conditions": "Homo sapiens"}, "MDA-MB-468 [15]": {"tested_on": "MDA-MB-468", "test": "Cell cycle arrest in MDA-MB-468 cells by accumulation at S phase at 4.0 uM after 24 hrs", "format": "functional, Homo sapiens"}, "MDA-MB-468 [16]": {"tested_on": "MDA-MB-468", "test": "Cell cycle arrest in MDA-MB-468 cells by accumulation at G2/M phase at 1.0 to 2.0 uM by flow cytometry", "format": "functional, cell-based", "conditions": "Homo sapiens"}, "MDA-MB-468 [17]": {"tested_on": "MDA-MB-468", "test": "Cell cycle arrest in MDA-MB-468 cells by accumulation at S phase at 0.5 uM after 24 hrs", "format": "functional, Homo sapiens"}, "MDA-MB-468 [18]": {"tested_on": "MDA-MB-468", "test": "Cell cycle arrest in MDA-MB-468 cells by accumulation at G2/M phase at 8.0 uM after 24 hrs", "format": "functional, Homo sapiens"}},
  "note": "Activity calls are given as the source filed them. The rule behind the calls is not given here.",
  "data": [
    {"smiles": "c1ccc(Sc2nc(Sc3ccccn3)nc(Sc3ccccn3)n2)nc1", "values": [
      {"measurement": "IC50", "setting": "MDA-MB-468 [1]", "result": 1600, "unit": "nM"},
      {"measurement": "Activity", "setting": "MDA-MB-468 [2]", "result": "Active"},
      {"measurement": "Activity", "setting": "MDA-MB-468 [3]", "result": 20.8, "unit": "%"},
      {"measurement": "Activity", "setting": "MDA-MB-468 [4]", "result": "inactive"},
      {"measurement": "Activity", "setting": "MDA-MB-468 [5]", "result": "Active"},
      {"measurement": "Activity", "setting": "MDA-MB-468 [6]", "result": 33.6, "unit": "%"},
      {"measurement": "Activity", "setting": "MDA-MB-468 [7]", "result": 21.8, "unit": "%"},
      {"measurement": "Activity", "setting": "MDA-MB-468 [8]", "result": 36.3, "unit": "%"},
      {"measurement": "Activity", "setting": "MDA-MB-468 [9]", "result": "Active"},
      {"measurement": "Activity", "setting": "MDA-MB-468 [10]", "result": "Dose-dependent effect"},
      {"measurement": "Activity", "setting": "MDA-MB-468 [11]", "result": 40.5, "unit": "%"},
      {"measurement": "Activity", "setting": "MDA-MB-468 [12]", "result": 49, "unit": "%"},
      {"measurement": "Activity", "setting": "MDA-MB-468 [13]", "result": "Active"},
      {"measurement": "Activity", "setting": "MDA-MB-468 [14]", "result": "Dose-dependent effect"},
      {"measurement": "Activity", "setting": "MDA-MB-468 [15]", "result": 25.9, "unit": "%"},
      {"measurement": "Activity", "setting": "MDA-MB-468 [16]", "result": "Active"},
      {"measurement": "Activity", "setting": "MDA-MB-468 [17]", "result": 29.2, "unit": "%"},
      {"measurement": "Activity", "setting": "MDA-MB-468 [18]", "result": 42.9, "unit": "%"}
    ]}
  ]
}
